Experimental data from patent US7166622B2, “Substituted phenylsulfonamide inhibitors of beta amyloid production” (Wyeth, priority 2002, dated 2007).
Where “and” joins values, the source holds several entries; their conditions need not be identical. Equal entries are not always repeated. Where two headings read alike, the source gives them in different places.

Assays:
beta amyloid production = test: Repressor Release Assay (RRA); format: cell-based; settings: for fold induction at 20 µg/mL: Conc 20 μg/ml; for APPI % of Example #98: relative to Example 98
Summary of the method: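 Read-out is luciferase luminescence (RLU) after 36-48 h duplicate compound exposure of transfected CHO-K1 cells. These cells carry transiently introduced APP-lacI and pRSVO-luc DNA. Diluent control was 25 mM Hepes/1% DMSO; toxicity recorded as binary score (1 non-toxic, 0 toxic).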

CHO-K1 cells = test: Toxicity in RRA (loss of luciferase signal); settings: toxicity = loss of signal (<0.75 fold increase)
Protocol: The beta amyloid inhibitory activity of the compounds of the present invention was determined using the Repressor Release Assay (RRA).
“Fold Increase” refers to the amount of luciferase activity (measured in relative light units) over diluent control. “SEM” refers to the standard error of the mean for fold increase.

[1] = luciferase activity over diluent control, read-out: APPI Fold Increase
[2] = Conc 10 μg/ml, luciferase activity over diluent control, read-out: APPI Fold Increase
[3] = Conc 10 μg/ml, luciferase activity over diluent control
[4] = luciferase activity (RLU) over diluent control, read-out: APPI Fold Increase
[5] = Conc 20 μg/ml, 1=non-toxic, 0=toxic

| Structure (SMILES) | fold induction at 20 µg/mL (beta amyloid production; [1]) | (%)APPI Toxicity (CHO-K1 cells; Conc 20 μg/ml) | fold induction at 10 µg/mL (beta amyloid production; [2]) | (%)APPI Toxicity (CHO-K1 cells; Conc 10 μg/ml) | other results |
| --- | --- | --- | --- | --- | --- |
| CC[C@H](C)[C@@H](CO)N(Cc1ccco1)S(=O)(=O)c1ccc(Cl)cc1 [Example 46, 4-chloro-N-(2-furylmethyl)-N-[(1S,2S)-1-(hydroxymethyl)-2-methylbutyl]benzenesulfonamide] | 1.8 | 1 (1=non-toxic) | – | – | – |
| CC[C@H](C)[C@H](NS(=O)(=O)c1ccccc1F)C(O)(c1ccc(OC)cc1)c1ccc(OC)cc1 [Example 269, 2-fluoro-N-((1S,2S)-1-{hydroxy[bis(4-methoxyphenyl)]methyl}-2-methylbutyl)benzenesulfonamide] | – | – | 1.58 | 1 (1=non-toxic) | – |
| CC[C@H](C)[C@H](NS(=O)(=O)c1ccc(Br)cc1)C(O)C1CCCC1 (stereo partly drawn) [Example 146, 4-bromo-N-1-{(1S,2S)-1-[cyclopentyl(hydroxy)methyl]-2-methylbutyl}benzenesulfonamide] | – | – | – | 1 (1=non-toxic) | APPI Fold Increase (beta amyloid production; Conc 3 μg/ml, luciferase activity over diluent control): 1.53 fold; APPI % of Example #98 (beta amyloid production; Conc 3 μg/ml): 60.66%; APPI Fold Increase (beta amyloid production; [3]): 4.26 fold and 2.33 fold; APPI % of Example #98 (beta amyloid production; Conc 10 μg/ml): 166.6% and 92.64%; (%)APPI Toxicity (CHO-K1 cells; Conc 3 μg/ml): 1 (1=non-toxic) |
| CC[C@H](C)[C@H](NS(=O)(=O)c1ccc(F)cc1)C(O)(c1ccc(N(C)C)cc1)c1ccc(N(C)C)cc1 [Example 247, N-{(1S,2S)-1-[bis[4-(dimethylamino)phenyl](hydroxy)methyl]-2-methylbutyl}-4-fluorobenzenesulfonamide] | – | – | 1.54 | 1 (1=non-toxic) | – |
| CC[C@H](C)[C@H](NS(=O)(=O)c1cccc(Cl)c1)C(O)CCC1OCCCO1 (stereo partly drawn) [Example 199, 3-chloro-N-{(1S)-4-(1,3-dioxan-2-yl)-2-hydroxy-1-[(1S)-1-methylpropyl]butyl}benzenesulfonamide] | – | – | 1.61 | 1 (1=non-toxic) | – |
| CC[C@H](C)[C@H](NS(=O)(=O)c1ccc(Cl)cc1)C(O)c1ccc(OC)cc1 (stereo partly drawn) [Example 178, 4-chloro-N-{(1S,2S)-1-[hydroxy(4-methoxyphenyl)methyl]-2-methylbutyl}benzenesulfonamide] | – | – | 1.68 | 1 (1=non-toxic) | – |
| O=S(=O)(N[C@H](CO)CC1CCCCC1)c1cccc(Cl)c1 [Example 106, 3-chloro-N-[(1S)-2-cyclohexyl-1-(hydroxymethyl)ethyl]benzenesulfonamide] | 1.6 | 1 (1=non-toxic) | – | – | – |
| CC(C)[C@H](C)[C@@H](CO)NS(=O)(=O)c1ccc(Cl)cc1 [Example 69, 4-chloro-N-[(1S,2S)-1-(hydroxymethyl)-2,3-dimethylbutyl]benzenesulfonamide] | – | – | – | – | fold induction at 20 µg/mL (beta amyloid production; [4]): 3.1; (%)APPI Toxicity (CHO-K1 cells; [5]): 1 (1=non-toxic) |
| CCCCCC[C@@H](CCCCC)[C@@H](CO)NS(=O)(=O)c1ccc(Cl)cc1 [Example 62, 4-chloro-N-[(1S,2R)-1-(hydroxymethyl)-2-pentyloctyl]benzenesulfonamide] | – | – | – | – | fold induction at 20 µg/mL (beta amyloid production; [4]): 1.8; (%)APPI Toxicity (CHO-K1 cells; [5]): 1 (1=non-toxic) |
| O=S(=O)(N[C@@H](CO)c1ccc(O)cc1)c1ccc(Br)cc1 [Example 17, 4-bromo-N-[(1R)-2-hydroxy-1-(4-hydroxyphenyl)ethyl]benzenesulfonamide] | 2.2 | 1 (1=non-toxic) | – | – | – |
| CC[C@H](C)[C@H](NS(=O)(=O)c1ccc(F)cc1)C(O)C1CCCC1 (stereo partly drawn) [Example 127, N-{(1S,2S)-1-[cyclopentyl(hydroxy)methyl]-2-methylbutyl}-4-fluorobenzenesulfonamide] | – | – | 2.97 | 1 (1=non-toxic) | – |
| CC(C)C[C@@H](CO)NS(=O)(=O)c1ccc(Cl)cc1 [Example 92, 4-chloro-N-[(1S)-1-(hydroxymethyl)-3-methylbutyl]benzenesulfonamide] | 1.7 | 1 (1=non-toxic) | – | – | – |
| CC[C@H](C)[C@@H](CO)N(C)S(=O)(=O)c1ccc(Cl)cc1 [Example 90, 4-Chloro-N-methyl-N-[(1S,2S)-1-(hydroxymethyl)-2-methylbutyl]benzenesulfonamide] | 1.6 | 1 (1=non-toxic) | – | – | – |
| C=CCCC(O)(CCC=C)[C@@H](NS(=O)(=O)c1cccc(Cl)c1)[C@@H](C)CC [Example 260, N-{(1S)-2-(3-butenyl)-2-hydroxy-1-[(1S)-1-methylpropyl]-5-hexenyl}-3-chlorobenzenesulfonamide] | – | – | 6.23 | 1 (1=non-toxic) | fold induction at 3 µg/mL (beta amyloid production; Conc 3 μg/ml, luciferase activity over diluent control, read-out: APPI Fold Increase): 1.5; (%)APPI Toxicity (CHO-K1 cells; Conc 3 μg/ml): 1 (1=non-toxic) |
| C[C@@H](NS(=O)(=O)c1ccc(Cl)cc1)[C@@H](O)c1ccccc1 [Example 93, 4-chloro-N-[(1R,2S)-2-hydroxy-1-methyl-2-phenylethyl]benzenesulfonamide] | 1.5 | 1 (1=non-toxic) | – | – | – |
| CCCCCC[C@@H](C(C)C)[C@@H](CO)NS(=O)(=O)c1ccc(Cl)cc1 [Example 70, 4-chloro-N-[(1S,2S)-1-(hydroxymethyl)-2-isopropyloctyl]benzenesulfonamide] | – | – | – | – | fold induction at 20 µg/mL (beta amyloid production; [4]): 2; (%)APPI Toxicity (CHO-K1 cells; [5]): 1 (1=non-toxic) |

| Structure (SMILES) | fold induction at 20 µg/mL (beta amyloid production; [1]) | (%)APPI Toxicity (CHO-K1 cells; Conc 20 μg/ml) | fold induction at 10 µg/mL (beta amyloid production; [2]) | (%)APPI Toxicity (CHO-K1 cells; Conc 10 μg/ml) | other results |
| --- | --- | --- | --- | --- | --- |
| CCCCCCC(O)(CCCCCC)[C@@H](NS(=O)(=O)c1cccc(Cl)c1)[C@@H](C)CC [Example 249, 3-chloro-N-{(1S)-2-hexyl-2-hydroxy-1-[(1S)-1-methylpropyl]octyl}benzenesulfonamide] | – | – | 1.9 | 1 (1=non-toxic) | – |
| CC(c1ccccc1)C(CO)NS(=O)(=O)c1ccc(Br)cc1 (stereo not drawn) [Example 35, 4-bromo-N-[-1-(hydroxymethyl)-2-phenylpropyl]benzenesulfonamide] | 2.4 | 1 (1=non-toxic) | – | – | – |
| C=CC(O)[C@@H](NS(=O)(=O)c1ccc(F)cc1)[C@@H](C)CC (stereo partly drawn) [Example 133, 4-fluoro-N-{(1S)-2-hydroxy-1-[(1S)-1-methylpropyl]-3-butenyl}benzenesulfonamide] | – | – | 1.79 | 1 (1=non-toxic) | – |
| CCCC(CO)NS(=O)(=O)c1cccc(Cl)c1 (stereo not drawn) [Example 105, 3-chloro-N-[1-(hydroxymethyl)butyl]benzenesulfonamide] | – | – | 1.54 | 1 (1=non-toxic) | – |
| CCCCC(O)(CCCC)[C@@H](NS(=O)(=O)c1ccc(Cl)cc1)[C@@H](C)CC [Example 225, N-{(1S)-2-butyl-2-hydroxy-1-[(1S)-1-methylpropyl]hexyl}-4-chlorobenzenesulfonamide] | – | – | 6.82 | 1 (1=non-toxic) | – |
| O=S(=O)(N[C@H](CO)Cc1ccc(OCc2ccccc2)cc1)c1ccc(Cl)cc1 [Example 96, N-{(1S)-1-[4-(benzyloxy)benzyl]-2-hydroxyethyl}-4-chlorobenzenesulfonamide] | 1.5 | 1 (1=non-toxic) | – | – | – |
| CC[C@@H](c1ccco1)[C@@H](CO)NS(=O)(=O)c1ccc(Cl)cc1 [Example 66, 4-chloro -N-[(1S,2R)-2-(2-furyl)-1-(hydroxymethyl)butyl]benzenesulfonamide] | – | – | – | – | fold induction at 20 µg/mL (beta amyloid production; [4]): 5.5; (%)APPI Toxicity (CHO-K1 cells; [5]): 1 (1=non-toxic) |
| CC[C@H](C)[C@H](NS(=O)(=O)c1ccc(Br)cc1)C(O)(c1cccc2ccccc12)c1cccc2ccccc12 [Example 222, 4-bromo-N-((1S,2S)-1-{hydroxy[di(1-naphthyl)]methyl}-2-methylbutyl) benzenesulfonamide] | – | – | – | 1 (1=non-toxic) | APPI Fold Increase (beta amyloid production; [3]): 1.59 fold; APPI % of Example #98 (beta amyloid production; Conc 10 μg/ml): 54.46% |
| C=CC(O)[C@@H](NS(=O)(=O)c1ccccc1F)[C@@H](C)CC (stereo partly drawn) [Example 206, 2-fluoro-N-{(1S)-2-hydroxy-1-[(1S)1-methylpropyl]-3-butenyl}benzenesulfonamide] | – | – | 1.9 | 1 (1=non-toxic) | – |
| CC(C)C[C@@H](c1ccco1)[C@@H](CO)NS(=O)(=O)c1ccc(Cl)cc1 [Example 67, 4-chloro -N-[(1S,2R)-2-(2-furyl)-1-(hydroxymethyl)-4-methylpentyl]benzenesulfonamide] | – | – | – | – | fold induction at 20 µg/mL (beta amyloid production; [4]): 3.9; (%)APPI Toxicity (CHO-K1 cells; [5]): 1 (1=non-toxic) |
| O=S(=O)(N[C@H](CO)c1ccccc1)c1ccccc1F [Example 112, 2-fluoro-N-[(1S)-2-hydroxy-1-phenylethyl]benzene sulfonamide] | 1.8 | 1 (1=non-toxic) | – | – | – |
| CC[C@@H](C)[C@H](CO)NS(=O)(=O)c1ccc(Br)cc1 [Example 33, 4-Bromo-N-[(1R,2R)-1-(hydroxymethyl)-2-methylbutyl]benzenesulfonamide] | 3.9 | 1 (1=non-toxic) | – | – | – |
| CC(C)[C@@](C)(CO)NS(=O)(=O)c1ccc(Cl)cc1 [Example 37, 4-chloro-N-[(1S)-1-(hydroxymethyl)-1,2-dimethylpropyl]benzenesulfonamide] | 4.7 | 1 (1=non-toxic) | – | – | – |
| C=CCCC(O)(CCC=C)[C@@H](NS(=O)(=O)c1ccc(Br)cc1)[C@@H](C)CC [Example 221, 4-bromo-N-{(1S)-2-(3-butenyl)-2-hydroxy-1-[(1S)-1-methylpropyl]-5-hexenyl}benzenesulfonamide] | – | – | 5.73 | 1 (1=non-toxic) | – |
| CC[C@H](C)[C@H](NS(=O)(=O)c1ccc(F)cc1)C(O)CCC1OCCCO1 (stereo partly drawn) [Example 140, N-{(1S)-4-(1,3-dioxan-2-yl)-2-hydroxy-1-[(1S)-1-methylpropyl]butyl}-4-fluorobenzenesulfonamide] | – | – | 1.52 | 1 (1=non-toxic) | – |
